In publication PMC8007834, “Anti-estrogenic and anti-aromatase activities of citrus peels major compounds in breast cancer” (Scientific Reports, 2021):
In brackets after ≈: the same amount, converted by molar mass.

Legend:
[1] = tested on: MCF-7; assay: SRB cytotoxicity assay on MCF7; assay type: cell-based, human; settings: for IC50: Homo sapiens, MCF7, ± SD, read-out: IC50 values, cytotoxic effect on MCF7
Procedure: (§1) The assessment was performed in the National Cancer Institute in Egypt (NCI). The half maximal inhibitory concentration (IC50) values were then calculated from three independent experiments, three replicates each for each sample.

[2] = tested on: T47D; assay: SRB cytotoxicity assay on T47D; assay type: cell-based, human; settings: ± SD; for IC50: Homo sapiens, T47D, read-out: IC50 values, cytotoxic effect on T47D
Procedure: as §1

[3] = SRB cytotoxicity assay on normal HFB4 cells; assay type: cell-based, human; settings: human, normal HFB4 cells, ± SD, read-out: IC50 values, cytotoxic effect on HFB4
Procedure: (§2) The cytotoxic activity of the ethanolic extracts of the peels along with the isolated major phenolics was tested against two human estrogen-dependent breast cancer cell lines, namely, MCF-7 and T47D, as well as the normal human HFB4 cells for assessment of toxicity, using the sulforhodamine B (SRB) assay. The assessment was performed in the National Cancer Institute in Egypt (NCI). The half maximal inhibitory concentration (IC50) values were then calculated from three independent experiments, three replicates each for each sample.

[4] = tested on: Immature female Swiss albino mice; assay: In vivo estrogenic activity assay; settings: 30 mg/kg i.p.
Procedure: (§3) Immature female Swiss albino mice (8-13 g) were obtained from the animal house of the Faculty of Pharmacy, The British University in Egypt. All experimental procedures were conducted in compliance with the Animal Research: Reporting of In Vivo Experiments (ARRIVE) guidelines and the National Institutes of Health guide for the care and use of Laboratory animals (NIH Publication No. 85-23, revised 2011) and were approved by the Ethics Committee, Faculty of Pharmacy, The British University in Egypt (Ex-2101). All experiments were performed during the light phase of a light/dark cycle that was started 1 week after acclimatization. The room temperature was adjusted at 25 ± 2 °C. Mice had free access to food and water during the experiments. The experimental design was adopted from[27],[28]. The mice were randomly divided into 9 groups (7-8 mice each) as follows: Group 1: Negative control (NC) receiving only olive oil, s.c.; Group 2: […] For estrogenic activity, Group 3: Genistein phytoestrogen positive control (Gein.) treated group; Group 4: Quercetin (Qrt.) treated group; Group 5: Naringenin (Narn.) treated group and Group 6: Naringin (Nar.) treated group. For anti-estrogenic activity, estradiol was given after treatments by 6 h for Groups 7, 8 and 9 representing […]., respectively. All treatments including genistein were given at a dose of 30 mg/kg dissolved in Tween 80 (1%), i.p., for 7 days. The animals' weights were recorded daily to ensure the safety of the doses used. On the 7th day, the animals were sacrificed, the morphological appearance of the livers was observed, and the uteri were also isolated and weighed. The in vivo estrogenic and anti-estrogenic activities were assessed. The vaginal opening on each day of the study was checked as a sign of puberty. On the 7th day, vaginal swab was taken from the opened vagina to examine the cornification level under light microscope (4× lens). The uteri were excised and weighed after sacrification of mice under anesthesia.

[5] = tested on: Immature female Swiss albino mice; assay: In vivo anti-estrogenic activity assay (with estradiol); settings: for reversal of estradiol-induced vaginal cornification / reduction in uterine weight compared to estradiol alone: 30 mg/kg i.p. plus estradiol; for reduction in uterine weight compared to estradiol alone: 7 days; for day on which vaginal opening reached 100% / day on which vaginal opening started (delay up to day): flavonoid 30 mg/kg i.p. plus estradiol 12.5 µg/kg s.c., estradiol alone as positive control
Procedure: as §3

[6] = tested on: Ehrlich ascites carcinoma (EAC) solid tumor; assay: Ehrlich ascites carcinoma (EAC) solid tumor model, tumor volume; assay type: in vivo, mice; settings: 19th day after treatment; quercetin 100, naringenin 50, naringin 100 mg/kg i.p. daily
Source text: In order to evaluate the anticancer effect of the active isolates (quercetin, naringenin and naringin) and their potential to decrease aromatase levels in tumours, an animal model of Ehrlich ascites carcinoma (EAC) solid tumour was used followed by aromatase ELISA assay as will be described later. Swiss albino female mice (20-25 g) were used for the experiment. EAC cells were collected from the ascitic fluid of a female Swiss albino mouse bearing a 10-day old ascitic tumor where approximately 2.5 × 10^6 cells were transplanted, i.m. in the left thigh of female mice. When tumors became palpable (approximately 200-300 mm^3 in volume), treatment was initiated. Forty EAC-tumour bearing mice were randomly allocated into the following groups (n = 10): (1) PC group: positive control group that received only drug vehicle, (2) Qrt.-treated group: Mice were treated with a daily dose of 100 mg/kg of quercetin[30] i.p., (3) Narn.-treated group: Mice were treated with a daily dose of 50 mg/kg of naringenin, i.p.[31], and (4) Nar.-treated group: […] Treatment doses were given daily excluding Fridays and Saturdays. Tween 80 (1%) was used as a vehicle. Mice were sacrificed under brief anaesthesia at the 20th day after starting treatment and tumors were collected for further analysis. Tumor volume was calculated using a digital caliper at days 0, 4, 7, 10, 13, 16, and 19 after treatment, according to the following equation[33]: […]

[7] = tested on: Aromatase; assay: Aromatase protein levels in EAC solid tumors (ELISA); assay type: in vivo, mice; settings: for aromatase levels in tumors, lower than positive control group: ELISA on tumor homogenates, day 20, quercetin 100, naringenin 50, naringin 100 mg/kg i.p.
Source text: EAC cells were collected from the ascitic fluid of a female Swiss albino mouse bearing a 10-day old ascitic tumor where approximately 2.5 × 10^6 cells were transplanted, i.m. in the left thigh of female mice. When tumors became palpable (approximately 200–300 mm^3 in volume), treatment was initiated. Forty EAC-tumour bearing mice were randomly allocated into the following groups (n = 10): (1) PC group: positive control group that received only drug vehicle, (2) Qrt.-treated group: Mice were treated with a daily dose of 100 mg/kg of quercetin[30] i.p., (3) Narn.-treated group: Mice were treated with a daily dose of 50 mg/kg of naringenin, i.p.[31], and (4) Nar.-treated group: Mice were treated with a daily dose of 100 mg/kg of naringin, i.p.[32]. Treatment doses were given daily excluding Fridays and Saturdays. Tween 80 (1%) was used as a vehicle. Mice were sacrificed under brief anaesthesia at the 20th day after starting treatment and tumors were collected for further analysis.
Excised tumors were homogenized as 10% (w/v) in phosphate buffered saline. Aromatase concentration was then determined in tissue homogenates using Mouse Aromatase ELISA kit (MyBiosource, USA), according to the manufacturer’s instructions. Optical density equivalent to aromatase levels in samples was determined at 450 nm using a microplate reader.

[8] = tested on: uterine weight; parameters: method as in PMID 25337190; settings: cited from earlier work
[9] = tested on: estrogen-induced uterine weight; settings: 30 mg/rat co-treated with estradiol (0.5 µg/rat); cited from earlier work
[10] = parameters: method as in PMID 21964193; settings: naringin 40 and naringenin 80 mg/kg, respectively; cited from earlier work
[11] = tested on: HFB4 cells; assay: SRB cytotoxicity assay on normal HFB4 cells; assay type: cell-based, human; settings: ± SD
Procedure: as §2

[12] = target: T1, Aromatase enzyme (CYP19) (Homo sapiens, UniProt P11511); assay: In vitro aromatase inhibition assay (dibenzylfluorescein); assay type: biochemical; settings: ± SD
T1 construct: purchased BD Biosciences, San Jose, CA
T1 sequence (P11511 1-503): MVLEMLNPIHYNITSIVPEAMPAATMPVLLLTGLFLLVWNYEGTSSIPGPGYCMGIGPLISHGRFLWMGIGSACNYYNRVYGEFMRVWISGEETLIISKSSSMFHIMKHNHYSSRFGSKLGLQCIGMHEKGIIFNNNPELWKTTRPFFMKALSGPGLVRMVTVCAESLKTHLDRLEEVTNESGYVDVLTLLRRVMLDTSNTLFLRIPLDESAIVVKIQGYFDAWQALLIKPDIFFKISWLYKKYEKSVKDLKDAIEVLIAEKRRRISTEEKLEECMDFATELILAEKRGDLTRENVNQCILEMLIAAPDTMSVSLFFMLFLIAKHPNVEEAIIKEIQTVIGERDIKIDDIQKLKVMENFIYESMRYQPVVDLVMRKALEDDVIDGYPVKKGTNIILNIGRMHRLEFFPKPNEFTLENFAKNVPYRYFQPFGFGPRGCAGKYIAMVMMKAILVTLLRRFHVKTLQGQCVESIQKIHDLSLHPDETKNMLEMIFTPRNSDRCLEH
Procedure: Aromatase inhibition was quantified by measuring the fluorescent intensity of fluorescein, the hydrolysis product of dibenzylfluorescein, by aromatase, as previously described[29]. In brief, the test substance (10 µL) was pre-incubated with the NADPH regenerating system (90 µL of 2.6 mM NADP^+, 7.6 mM glucose 6-phosphate, 0.8 U/mL glucose 6-phosphate dehydrogenase, 13.9 mM MgCl2, and 1 mg/mL albumin in 50 mM potassium phosphate, pH 7.4) for 10 min at 37 °C before 100 µL of the enzyme and substrate mixture [4 pmol/well enzyme (CYP19, BD Biosciences, San Jose, CA), 0.4 µM dibenzylfluorescein, and 4 mg/mL albumin in 50 mM potassium phosphate, pH 7.4] were added. Then, the reaction mixture was incubated for 30 min at 37 °C to allow aromatase to generate the product and quenched with 75 µL of 2 N NaOH. After the reaction was terminated, shaking was done for 5 min followed by incubation for 2 h at 37 °C to enhance the noise/background ratio, then fluorescence was measured at 485 nm (excitation) and 530 nm (emission). Three independent experiments were performed in duplicates, and the average values were used to construct the dose–response curves.

| SMILES | IC50 [1] [µg/mL] | IC50 [2] [µg/mL] | IC50 [3] [µg/mL] | average uterine weight ([4]; 7 days, no estradiol) [mg] | reversal of estradiol-induced vaginal cornification [5] | reduction in uterine weight compared to estradiol alone [5] [%] | day on which vaginal opening reached 100% [5] [days] | day on which vaginal opening started (delay up to day) [5] [days] | decrease in tumor volume compared to positive control [6] [%] | other results |
| --- | --- | --- | --- | --- | --- | --- | --- | --- | --- | --- |
| COc1ccc(-c2cc(=O)c3c(OC)c(OC)c(OC)c(OC)c3o2)cc1OC [C1, 5,6,7,8,3′,4′-hexamethoxy flavone] | > 50 | > 50 | > 50 |  |  |  |  |  |  |  |
| O=c1c(O)c(-c2ccc(O)c(O)c2)oc2cc(O)cc(O)c12 [C2, 5,7,3′,4′-tetrahydroxy flavonol] | 2.11 ± 0.71 (≈ 6.98 µM) | 1.81 ± 0.28 (≈ 5.99 µM) | > 50 | 13.0 ± 3.0 | not fully reversed | 48 | 4 | 2 | 61.71 | day on which vaginal opening started ([4]; 7 days, no estradiol): 6 days; reduction in aromatase levels as compared to naringenin ([7]; EAC tumors, ELISA): 26.4%; reduction in aromatase levels as compared to naringin ([7]; EAC tumors, ELISA): 32%; aromatase levels in tumors, lower than positive control group [7]: 72.35%; effect on the uterine weight upon treatment with steroid ([8]; 10 mg/kg): anti-estrogenic effect; estrogenic effect at higher dose ([8]; 100 mg/kg): potent estrogenic effect |
| COc1ccc(-c2cc(=O)c3c(O)cc(O[C@@H]4O[C@H](CO[C@@H]5O[C@@H](C)[C@H](O)[C@@H](O)[C@H]5O)[C@@H](O)[C@H](O)[C@H]4O)cc3o2)cc1O [C3, 5,3′-dihydroxy-4′-methoxy flavone-7O-α-L-rhamnopyranosyl (1 → 6)β-D-glucopyranoside] | > 50 | > 50 | > 50 |  |  |  |  |  |  |  |
| O=C1CC(c2ccc(O)cc2)Oc2cc(O)cc(O)c21 (centres unmarked) [C4, 5,7,4′-trihydroxy flavanone] | 1.12 ± 0.09 (≈ 4.11 µM) | 1.93 ± 0.07 (≈ 7.09 µM) | > 50 | 16.0 ± 3.7 | not fully reversed | 58 | 7 | 5 | 73.26 | effect on estrogen-induced uterine weight [9]: significant decrease in estrogen-induced uterine weight; estrogenic and anti-estrogenic activities [10]: double directional estrogenic and anti-estrogenic activities |
| COc1ccc([C@@H]2CC(=O)c3c(O)cc(O[C@@H]4O[C@H](CO[C@@H]5O[C@@H](C)[C@H](O)[C@@H](O)[C@H]5O)[C@@H](O)[C@H](O)[C@H]4O)cc3O2)cc1O [C5, 5,3′-dihydroxy-4′-methoxy flavanone-7O-α-L-rhamnopyranosyl (1 → 6)β-D-glucopyranoside] |  |  |  |  |  |  |  |  |  | IC50 values, cytotoxic effect on MCF7 ([1]; ± SD): – ((−) no activity in a concentration up to 50 µg/mL); IC50 values, cytotoxic effect on T47D [2]: – ((−) no activity in a concentration up to 50 µg/mL); IC50 values, cytotoxic effect on HFB4 [11]: – ((−) no activity in a concentration up to 50 µg/mL) |
| COc1ccc(C2CC(=O)c3c(O)cc(O)cc3O2)cc1O (centres unmarked) [C6, 5,7,3′-trihydroxy-4′-methoxy flavanone] | 4.96 ± 0.89 (≈ 16.4 µM) | 3.53 ± 0.19 (≈ 11.7 µM) | > 50 |  |  |  |  |  |  |  |
| C[C@@H]1O[C@@H](OC[C@H]2O[C@@H](Oc3c(-c4ccc(O)c(O)c4)oc4cc(O)cc(O)c4c3=O)[C@H](O)[C@@H](O)[C@@H]2O)[C@H](O)[C@H](O)[C@H]1O [C7, 5,7,3′,4′-tetrahydroxy flavon-3O-α-L-rhamnopyranosyl (1 → 6)β-D-glucopyranoside] | > 50 | > 50 | > 50 |  |  |  |  |  |  |  |
| C[C@@H]1O[C@@H](O[C@H]2[C@H](Oc3cc(O)c4c(c3)O[C@H](c3ccc(O)cc3)CC4=O)O[C@H](CO)[C@@H](O)[C@@H]2O)[C@H](O)[C@H](O)[C@H]1O [C8] | 2 ± 0.98 (≈ 3.45 µM) | 3.63 ± 0.1 (≈ 6.25 µM) | > 50 | 17.0 ± 2.6 | not fully reversed | 57.7 | 7 | 3 | 71.47 | IC50 [12]: 3.26 µM; aromatase levels in tumors, lower than positive control group [7]: 59.36%; estrogenic and anti-estrogenic activities [10]: double directional estrogenic and anti-estrogenic activities |
| C[C@]12CC[C@@H]3c4ccc(OC(=O)c5ccccc5)cc4CC[C@H]3[C@@H]1CC[C@@H]2O [estradiol, Estradiol benzoate, reference compound] |  |  |  |  |  |  | 5 | 2 |  | body weight ([5]; 7 days treatment): 15.6 ± 1.8 g; uterine weight ([5]; estradiol alone 12.5 µg/kg s.c.): 215.0 ± 64.4 mg |
| O=c1c(-c2ccc(O)cc2)coc2cc(O)cc(O)c12 [genistein, reference compound] |  |  |  | 20.0 ± 7.5 |  |  |  |  |  | vaginal cornification ([4]; day 7 swab): mild vaginal cornification |
